# Key:
# [1] = tested on: NCI-H460, human non-small cell lung cancer cells; assay: Cell-MTS proliferation assay, NCI-H460; assay type: cell-based; details: Homo sapiens, 168 hr
# How it was run: (§1)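 Seven-day colorimetric MTS assay; compound at 11 concentrations from 100 μM down to 2.0 nM final, added a day after plating. IC50 from OD490 normalised to DMSO controls.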
# [2] = tested on: Raji, human Burkitts lymphoma cells; assay: Cell-MTS proliferation assay, Raji; assay type: cell-based; details: Homo sapiens, 168 hr
# How it was run: as §1
# [3] = tested on: HL-60, human proleukemia cells; assay: Cell-MTS proliferation assay, HL-60; assay type: cell-based; details: Homo sapiens, 168 hr
# How it was run: as §1
# BRD4(BD1) = BRD4(BD1) (Homo sapiens (Human), UniProt O60885); assay: In vitro enzyme inhibition assay (BRD4 AlphaScreen); assay type: binding
# How it was run: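 AlphaScreen proximity readout, using streptavidin donor and Ni-chelate acceptor beads at 5 μg/mL final, monitors biotin-H4 tetraacetylated peptide interaction with purified His-tagged BRD4.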
# [4] = NCI-H460, Cell-MTS proliferation
# [5] = in vitro enzyme inhibition assay
# [6] = NCI-H460, Cell-MTS, class symbols A/B/C
# [7] = Raji, Cell-MTS, class symbols A/B/C
# [8] = HL-60, Cell-MTS, class symbols A/B/C
# [9] = Cell-MTS proliferation, NCI-H460 cells
# [10] = Cell-MTS proliferation, Raji cells
# [11] = Cell-MTS proliferation, HL-60 cells
"IC50 [1, 4]","IC50 ([2]; Raji, Cell-MTS proliferation)","IC50 ([3]; HL-60, Cell-MTS proliferation)",IC50 (BRD4(BD1); [5]),"IC50 [1, 6]","IC50 [2, 7]","IC50 [3, 8]",IC50 (BRD4(BD1); class symbols A/B/C),"IC50 [1, 9]","IC50 [2, 10]","IC50 [3, 11]",SMILES
> 5000 nM,< 500 nM,< 500 nM,< 500 nM,–,–,–,–,–,–,–,"CCS(=O)(=O)c1ccc(OC)c(-c2cn(C)c(=O)c3ccc(-c4cn[nH]c4)cc23)c1 [Example 210, 4-(5-ethylsulfonyl-2-methoxyphenyl)-2-methyl-6-(1H-pyrazol-4-yl) isoquinolin-1-one]"
> 5000 nM,< 500 nM,< 500 nM,< 500 nM,–,–,–,–,–,–,–,"Cn1cc(-c2cc(S(C)(=O)=O)ccc2N[C@H]2CC[C@H](O)CC2)c2ccccc2c1=O [Example 192, 4-[2-[(trans-4-hydroxycyclohexyl)amino]-5-methylsulfonylphenyl]-2-methylisoquinolin-1-one]"
> 5000 nM,500 to 5000 nM,< 500 nM,< 500 nM,–,–,–,–,–,–,–,"Cn1cc(-c2nc(S(C)(=O)=O)ccc2OCC2CC2)c2ccoc2c1=O [Example 259, 4-[3-(cyclopropylmethoxy)-6-methylsulfonylpyridin-2-yl]-6-methylfuro[2,3-c]pyridin-7-one]"
–,–,–,< 500 nM,–,–,–,–,> 5000 nM,500 to 5000 nM,< 500 nM,"CC#CCOc1ccc(S(=O)(=O)CC)cc1-c1cc(OC)c(=O)n(C)c1 [Example 389, 5-(2-but-2-ynoxy-5-ethylsulfonylphenyl)-3-methoxy-1-methylpyridin-2-one]"
–,–,–,< 500 nM,–,–,–,–,> 5000 nM,< 500 nM,< 500 nM,"CCS(=O)(=O)c1ccc(OC2CCCC2)c(-c2cn(C)c(=O)c3cncn23)c1 [Example 374, 5-(2-cyclopentyloxy-5-ethylsulfonylphenyl)-7-methylimidazo[1,5-a]pyrazin-8-one]"
–,–,–,< 500 nM,–,–,–,–,> 5000 nM,< 500 nM,< 500 nM,"Cc1cc(-c2cc(NS(C)(=O)=O)ccc2OC2CCOCC2)cn(C)c1=O [Example 439, N-[3-(1,5-dimethyl-6-oxopyridin-3-yl)-4-(oxan-4-yloxy)phenyl] methanesulfonamide]"
> 5000 nM,500 to 5000 nM,< 500 nM,< 500 nM,–,–,–,–,–,–,–,"Cc1cc(-c2cc(S(C)(=O)=O)ccc2OCC2CC2)cn(CC2CC2)c1=O [Example 242, 5-[2-(cyclopropylmethoxy)-5-methylsulfonylphenyl]-1-(cyclopropylmethyl)-3-methylpyridin-2-one]"
> 5000 nM,< 500 nM,< 500 nM,< 500 nM,–,–,–,–,–,–,–,"CCS(=O)(=O)c1ccc(OCC2CC2)c(-c2cn(C)c(=O)c3occc23)c1 [Example 252, 4-[2-(cyclopropylmethoxy)-5-ethylsulfonylphenyl]-6-methylfuro[2,3-c]pyridine-7-one]"
> 5000 nM,< 500 nM,< 500 nM,< 500 nM,–,–,–,–,–,–,–,CCS(=O)(=O)Nc1cnc(OCC2CC2)c(-c2cn(C)c(=O)c3oc(F)cc23)c1 [Example 261]
> 5000 nM,500 to 5000 nM,< 500 nM,< 500 nM,–,–,–,–,–,–,–,"CCOc1ccc(S(=O)(=O)CC)cc1-c1cn(C)c(=O)c2cnc(-c3cnn(C)c3)nc12 [Example 227, 8-(2-ethoxy-5-ethylsulfonylphenyl)-6-methyl-2-(1-methylpyrazol-4-yl)pyrido[4,3-d]pyrimidin-5-one]"
–,–,–,–,> 5000 nM,< 500 nM,< 500 nM,< 500 nM,–,–,–,"CCS(=O)(=O)Nc1ccc(Oc2ccc(F)cc2F)c(-c2cc(N)c(=O)n(C)c2)c1 [Example 115, N-[3-(5-amino-1-methyl-6-oxopyridin-3-yl)-4-(2,4-difluorophenoxy)phenyl]ethanesulfonamide]"
–,–,–,–,> 5000 nM,< 500 nM,< 500 nM,< 500 nM,–,–,–,"CCS(=O)(=O)Nc1ccc(Oc2ccc(F)cc2F)c(-c2ccc(=O)n(C)c2)c1 [Example 99, N-[4-(2,4-difluorophenoxy)-3-(1-methyl-6-oxopyridin-3-yl)phenyl]ethanesulfonamide]"

# Second part, the compound before the results:
SMILES,"IC50 [1, 4]","IC50 ([2]; Raji, Cell-MTS proliferation)","IC50 ([3]; HL-60, Cell-MTS proliferation)",IC50 (BRD4(BD1); [5]),"IC50 [1, 6]","IC50 [2, 7]","IC50 [3, 8]",IC50 (BRD4(BD1); class symbols A/B/C),"IC50 [1, 9]","IC50 [2, 10]","IC50 [3, 11]"
"CCS(=O)(=O)Nc1cnc(OCC2CC2)c(-c2cn(C)c(=O)c3sc(C(N)=O)cc23)c1 [Example 268, 4-[2-(cyclopropylmethoxy)-5-(ethylsulfonylamino)pyridin-3-yl]-6-methyl-7-oxothieno[2,3-c]pyridine-2-carboxamide]",> 5000 nM,500 to 5000 nM,< 500 nM,< 500 nM,–,–,–,–,–,–,–
"CCS(=O)(=O)Nc1cc(-c2cn(C)c(=O)c3ccc(-c4cnn(C)c4)cc23)c(OC)cc1F [Example 86, N-[2-fluoro-4-methoxy-5-[2-methyl-6-(1-methylpyrazol-4-yl)-1-oxoisoquinolin-4-yl]phenyl]ethanesulfonamide]",–,–,–,–,500 to 5000 nM,< 500 nM,< 500 nM,< 500 nM,–,–,–
"CCS(=O)(=O)c1ccc(OCC2CC2)c(-c2cn(C)c(=O)c3ccccc23)n1 [Example 206, 4-[3-(cyclopropylmethoxy)-6-ethylsulfonylpyridin-2-yl]-2-methylisoquinolin-1-one]",> 5000 nM,< 500 nM,< 500 nM,< 500 nM,–,–,–,–,–,–,–
"Cc1cc(-c2cc(S(C)(=O)=O)ccc2OCC2CC2)cn(Cc2cocn2)c1=O [Example 246, 5-[2-(cyclopropylmethoxy)-5-methylsulfonylphenyl]-3-methyl-1-(1,3-oxazol-4-ylmethyl)pyridin-2-one]",> 5000 nM,> 5000 nM,> 5000 nM,500 to 5000 nM,–,–,–,–,–,–,–
"Cn1cc(-c2ccc3c(=O)n(C)cc(-c4nc(CS(C)(=O)=O)ncc4OCC4CC4)c3c2)cn1 [Example 145, 4-[5-(cyclopropylmethoxy)-2-(methylsulfonylmethyl)pyrimidin-4-yl]-2-methyl-6-(1-methylpyrazol-4-yl)isoquinolin-1-one]",> 5000 nM,500 to 5000 nM,< 500 nM,< 500 nM,–,–,–,–,–,–,–
"Cc1cc(-c2cc(N(C3COC3)S(C)(=O)=O)ccc2Oc2ccc(F)cc2F)cn(C)c1=O [Example 230, N-[4-(2,4-difluorophenoxy)-3-(1,5-dimethyl-6-oxopyridin-3-yl)phenyl]-N-(oxetan-3-yl)methanesulfonamide]",> 5000 nM,< 500 nM,< 500 nM,< 500 nM,–,–,–,–,–,–,–
"CCS(=O)(=O)Nc1ncc(OCC2CC2)c(-c2cn(C)c(=O)c3occc23)n1 [Example 264, N-[5-(cyclopropylmethoxy)-4-(6-methyl-7-oxofuro[2,3-c]pyridin-4-yl)pyrimidin-2-yl]ethanesulfonamide]",> 5000 nM,< 500 nM,< 500 nM,< 500 nM,–,–,–,–,–,–,–
"CCS(=O)(=O)Nc1ncc(OCC2CC2)c(-c2cn(C)c(=O)c3ccc(F)cc23)n1 [Example 157, N-[5-(cyclopropylmethoxy)-4-(6-fluoro-2-methyl-1-oxoisoquinolin-4-yl)pyrimidin-2-yl]ethanesulfonamide]",> 5000 nM,< 500 nM,< 500 nM,< 500 nM,–,–,–,–,–,–,–
"Cn1cc(-c2nc(NS(C)(=O)=O)ncc2Oc2ccc(F)cc2F)c2ccoc2c1=O [Example 262, N-[5-(2,4-difluorophenoxy)-4-(6-methyl-7-oxofuro[2,3-c]pyridin-4-yl)pyrimidin-2-yl]methanesulfonamide]",> 5000 nM,< 500 nM,< 500 nM,< 500 nM,–,–,–,–,–,–,–
"Cc1cc(-c2nc(NS(C)(=O)=O)ncc2Oc2ccc(F)cc2F)cn(CC2CC2)c1=O [Example 248, N-[4-[1-(cyclopropylmethyl)-5-methyl-6-oxopyridin-3-yl]-5-(2,4-difluorophenoxy)pyrimidin-2-yl]methanesulfonamide]",> 5000 nM,< 500 nM,< 500 nM,< 500 nM,–,–,–,–,–,–,–
"CCS(=O)(=O)Nc1ccc(Oc2ccc(F)cc2F)c(-c2cc(OC)c(=O)n(C)c2)c1 [Example 443, N-[4-(2,4-difluorophenoxy)-3-(5-methoxy-1-methyl-6-oxopyridin-3-yl)phenyl]ethanesulfonamide]",–,–,–,< 500 nM,–,–,–,–,> 5000 nM,< 500 nM,< 500 nM
"CCS(=O)(=O)Nc1ccc(Oc2ccc(F)cc2F)c(-c2cn(C)c(=O)cc2F)c1 [Example 139, N-[4-(2,4-difluorophenoxy)-3-(4-fluoro-1-methyl-6-oxopyridin-3-yl)phenyl]ethanesulfonamide]",–,–,–,–,> 5000 nM,< 500 nM,< 500 nM,< 500 nM,–,–,–
"CCS(=O)(=O)Nc1ccc(OC2CCCOC2)c(-c2cc(C)c(=O)n(C)c2)c1 (stereo not drawn) [Example 448, N-[3-(1,5-dimethyl-6-oxopyridin-3-yl)-4-(oxan-3-yloxy)phenyl]ethanesulfonamide]",–,–,–,< 500 nM,–,–,–,–,> 5000 nM,< 500 nM,< 500 nM
"CC(=O)Nc1ccc(S(C)(=O)=O)cc1-c1cn(C)c(=O)c2ccccc12 [Example 222, N-[2-(2-methyl-1-oxoisoquinolin-4-yl)-4-methylsulfonylphenyl]acetamide]",> 5000 nM,> 5000 nM,> 5000 nM,> 5000 nM,–,–,–,–,–,–,–
"CCN(c1ncc(OCC2CC2)c(-c2cc(C)c(=O)n(C)c2)n1)S(C)(=O)=O [Example 162, N-[5-(cyclopropylmethoxy)-4-(1,5-dimethyl-6-oxopyridin-3-yl)pyrimidin-2-yl]-N-ethylmethanesulfonamide]",> 5000 nM,< 500 nM,< 500 nM,< 500 nM,–,–,–,–,–,–,–

# From US10023592B2, “Bromodomain inhibitors” (Celgene Quanticel Research, Inc., priority 2013, dated 2018)
